{"source": "patent US20210077501A1", "about": "“COMPOSITIONS FOR PREVENTING OR TREATING UVEITIS” (Chong Kun Dang Pharmaceutical Corp., priority 2018, published 2021)", "key": {"[1]": {"tested_on": "experimental autoimmune uveitis (EAU) mouse", "assay": "Clinical grading of uveitis in the EAU mouse (fundoscopy)", "type": "in vivo"}, "[2]": {"tested_on": "experimental autoimmune uveitis (EAU) mouse", "assay": "Real-time PCR of HDAC6 and inflammatory cytokines in the retina of the EAU mouse", "type": "in vivo", "conditions": "for expression level of HDAC6 / expression level of IL-1β / expression level of IL-17 / expression level of INF-γ / expression level of TNF-α: retina"}, "[3]": {"tested_on": "experimental autoimmune uveitis (EAU) mouse", "assay": "Immunofluorescent staining of immunomarkers in the retina of the EAU mouse", "type": "in vivo"}, "[4]": {"tested_on": "CTLA4 (cytotoxic T-lymphocyte-associated protein 4) in the regulatory T cells", "assay": "CTLA4 expression in regulatory T cells (iTreg) by flow cytometry", "type": "cell-based, mouse", "conditions": "iTreg, six days treatment; concentration not specified", "method": "To identify if the compounds according to the present invention regulate a function of regulatory T cells in immune responses, compounds 255, 280, 374, 416 and 476 were treated, and then an expression level of an immune checkpoint receptor CTLA4 (cytotoxic T-lymphocyte-associated protein 4) in the regulatory T cells was measured by means of flow cytometry.\nSpecifically, a six-week old C57BL6 male mice were supplied from Central Lab Animal Inc., then acclimated for one week, and then used in an experiment. A spleen was isolated from the mouse, and then treated with collagenase D (Roche, 11088866001), such that splenocytes were isolated therefrom. CD4+CD25-T cells were isolated by means of a CD4+CD25+ regulatory T cell isolation kit (Miltenyi Biotec, 130-091-041), and then CD4+CD25-T cells (at a ratio of 5×10^5 cells/well) were treated with an anti-CD3E/anti-CD28 mAb bead (T cell activation/expansion kit, Miltenyi Biotec, 130-093627) and a mouse recombinant TGF-β2 for six days, such that they were differentiated into iTreg. A test drug was simultaneously treated for six days, during which the cells were differentiated into iTreg. After that, the cells were incubated by means of anti-CD4/anti-CD25 mAb (eBioscience, 25-0042-82, 17-0251-82) at 4° C. for 20 minutes, and then labeling was performed. For intracytoplasmic staining, permeabilization was performed by means of Fix/permeabilization buffer (eBioscience, 00-5523-00), then labeling was performed by means of anti-FOXP3-Alexafluor488 (eBioscience, 53-5773-82) and anti-CTLA4-PE (eBioscience, 12-1522-82), and then flow cytometry was performed by means of FACS LSR Fortessa (BD bioscience)."}, "[5]": {"tested_on": "experimental autoimmune uveitis (EAU) mouse", "assay": "H&E staining of histopathological lesions in the retina of the EAU mouse", "type": "in vivo", "conditions": "0.3% eye drop twice a day, Day 21"}, "[6]": {"tested_on": "TNFα secretion in LPS-stimulated human monocyte cell lines (THP-1)", "assay": "Suppression of TNFα secretion in LPS-stimulated THP-1 cells (ELISA)", "type": "cell-based", "method": "To identify the efficacy of the inventive compounds on suppressing a TNFα secretion in immune responses, suppression of TNFα production, which was achieved by a treatment with compounds 374, 461, 500, 530 and 532 according to the present invention in LPS-stimulated human monocyte cell lines (THP-1), was quantified by means of an enzyme immuno-assay (ELISA).\nSpecifically, the THP-1 cell lines (ATCC) were cultured in an RPMI-1640 medium comprising 10% FBS. The cell lines were divided into a 24 well plate at a ratio of 1×10^5 cells per well, then treated with 100 ng/mL PMA (phorbol 12-myristate 13-acetate) for 24 hours, and then differentiated into macrophage. Then, the culture medium was replaced with a new one, then treated with a test drug for 24 hours, and then treated again with 10 ng/mL LPS (E.Coli, O55:B5) for four hours for stimulation. After that, supernatant was taken and used to measure the amount of TNFα secreted from the cells by means of a Human TNFα Instant ELISA kit (eBioscience, BMS223INST) according to a protocol provided by a manufacturer."}, "[7]": {"tested_on": "reactive T cells", "assay": "Treg suppression assay: proliferation of reactive T cells (eFluor670 dilution, flow cytometry)", "type": "cell-based, mouse", "conditions": "Teff:Treg 2:1, three days; concentration not specified", "method": "To identify the efficacy of the inventive compounds on suppressing the proliferation of reactive T cells in immune responses, compounds 255, 280, 374, 416 and 476 according to the present invention were cultured together with reactive T cells and regulatory T cells […], and then the suppressive efficacy of regulatory T cells was measured.\nSpecifically, a six-week old C57BL6 male mice were supplied from Central Lab Animal Inc., then acclimated for one week, and then used in an experiment. A spleen was isolated from the mouse, and then treated with collagenase D (Roche, 11088866001), such that splenocytes were isolated therefrom. […] were isolated by means of a CD4+CD25+ regulatory T cell isolation kit (Miltenyi Biotec, 130-091-041) according to a protocol provided by a manufacturer. Teff cells were cultured at 37° C. for ten minutes by means of eFluor®670 (Cell proliferation Dye eFluor®670, eBioscience), such that cell membranes were stained. Teff and Treg were divided into a 96 well plate at a ratio of 2:1, and then T cells were activated for three days by means of an anti-CD3E and anti-CD28 mAb magnetic bead (T cell activation/expansion kit, Miltenyi Biotec, 130-093627), such that Treg suppression assay was performed. A test drug was simultaneously treated for three days, during which the assay was performed. The divided amount of eFluor®670 labeled on the Teff cell membranes was measured, such that a degree of proliferation of T cells was evaluated accordingly. An eFluor®670-dilution plot was measured by means of a flow cytometer (FACS LSR Fortessa, BD bioscience). The suppressive ability on T cells proliferation was calculated by means of a following equation."}, "[8]": {"tested_on": "experimental autoimmune uveitis (EAU) mouse", "assay": "ELISA of IFN-γ and IL-17A from spleen mononuclear cells of the EAU mouse", "type": "in vivo"}, "[9]": {"tested_on": "experimental autoimmune uveitis (EAU) mouse", "assay": "FACS of immune cells in retina and draining lymph node of the EAU mouse", "type": "in vivo"}, "[10]": {"conditions": "i.p. administration group (10 or 30 mg/kg once a day)"}, "[11]": {"conditions": "EAU mouse, eye drop administration group"}, "[12]": {"conditions": "spleen MNC stimulated with IRBP peptide 72 hours, eye drop administration group"}, "[13]": {"conditions": "lymph node tissues, eye drop administration group"}, "[14]": {"conditions": "lymph nodes, i.p. administration group"}, "[15]": {"conditions": "retina tissues, eye drop administration group"}}, "data": [{"smiles": "O=C(NO)c1ccc(CN(C(=O)N2CCOCC2)c2cccc(C(F)(F)F)c2)cc1", "note": "[Compound 374, N-(4-(hydroxycarbamoyl)benzyl)-N-(3-(trifluoromethyl)phenyl)morpholine-4-carboxamide]", "values": [{"measurement": "clinical grade of uveitis", "setting": "[1]; EAU mouse, 0.3% eye drop twice a day from Day 11, Day 21, scale Grade 0-4", "result": "≤ 0.5", "unit": "Grade"}, {"measurement": "decreasing a uveitis lesion", "setting": "[1]; animal model for an induced uveitis disease, summary (FIGS. 4 to 6)", "result": "excellent effect"}, {"measurement": "inhibiting an expression of inflammatory cytokines in inflammation regions", "setting": "[2]; animal model for an induced uveitis disease, summary (FIG. 12)", "result": "excellent effect"}, {"measurement": "expression level of HDAC6", "setting": "[2]; eye drop administration group", "result": "significantly decreased and recovered to the level of the normal mouse"}, {"measurement": "expression level of IL-1β", "setting": "[2]; eye drop administration group", "result": "significantly decreased and recovered to the level of the normal mouse"}, {"measurement": "expression level of IL-17", "setting": "[2]; eye drop administration group", "result": "significantly decreased and recovered to the level of the normal mouse"}, {"measurement": "expression level of INF-γ", "setting": "[2]; eye drop administration group", "result": "significantly decreased and recovered to the level of the normal mouse"}, {"measurement": "expression level of TNF-α", "setting": "[2]; eye drop administration group", "result": "significantly decreased and recovered to the level of the normal mouse"}, {"measurement": "expression level of HDAC6", "setting": "[2]; [10]", "result": "significantly decreased and recovered to the level of the normal mouse"}, {"measurement": "expression level of IL-1β", "setting": "[2]; [10]", "result": "significantly decreased and recovered to the level of the normal mouse"}, {"measurement": "expression level of IL-17", "setting": "[2]; [10]", "result": "significantly decreased and recovered to the level of the normal mouse"}, {"measurement": "expression level of INF-γ", "setting": "[2]; [10]", "result": "significantly decreased and recovered to the level of the normal mouse"}, {"measurement": "expression level of TNF-α", "setting": "[2]; [10]", "result": "significantly decreased and recovered to the level of the normal mouse"}, {"measurement": "B220 (B cell marker) in retina", "setting": "[3]; [11]", "result": "did not show an obvious change"}, {"measurement": "CD3(+) cell (T cell marker) in retina", "setting": "[3]; [11]", "result": "significantly decreased to a similar level to that of a normal mouse"}, {"measurement": "infiltration of CD4(+) immune cells into a retina tissue", "setting": "[3]; [11]", "result": "clearly decreased and remained only under the retina"}, {"measurement": "inhibiting an infiltration of inflammatory cells", "setting": "[3]; animal model for an induced uveitis disease, summary (FIGS. 7 to 10)", "result": "excellent effect"}, {"measurement": "level of CTLA4 expression in the T cells (function of regulatory T cells)", "setting": "[4]", "result": "excellent effect"}, {"measurement": "inflammatory lesions in retina tissues (H&E)", "setting": "[5]", "result": "significantly decreased"}, {"measurement": "level of TNFα secretion", "setting": "[6]; THP-1, LPS, at both 100 nM and 300 nM", "result": "remarkably decreased down to a level at which no inflammatory response was induced by means of the LPS"}, {"measurement": "level of TNFα secretion", "setting": "[6]; in comparison with LPS-induced control group, THP-1, concentration not specified", "result": "excellent effect"}, {"measurement": "proliferation of the reactive T cells", "setting": "[7]", "result": "excellent effect"}, {"measurement": "inhibiting an expression of inflammatory cytokines in a spleen", "setting": "[8]; animal model for an induced uveitis disease, summary (FIG. 11)", "result": "excellent effect"}, {"measurement": "level of IL-17A", "setting": "[8]; [12]", "result": "significantly decreased"}, {"measurement": "level of INF-γ", "setting": "[8]; [12]", "result": "significantly decreased"}, {"measurement": "decreasing the number of immune cells in a retina and a lymph node", "setting": "[9]; animal model for an induced uveitis disease, summary (FIGS. 13 to 21)", "result": "excellent effect"}, {"measurement": "number of IL-IP(+) cells", "setting": "[9]; [13]", "result": "significantly decreased"}, {"measurement": "number of INF-γ(+)/CD4(+) cells", "setting": "[9]; [13]", "result": "significantly decreased"}, {"measurement": "number of INF-γ(+)/CD4(+) cells", "setting": "[9]; lymph node tissues, i.p. administration group", "result": "significantly decreased"}, {"measurement": "number of CD11b(+) cells", "setting": "[9]; [14]", "result": "decreased"}, {"measurement": "number of CD19(+) cells", "setting": "[9]; [14]", "result": "decreased"}, {"measurement": "number of F4/80(+) cells", "setting": "[9]; [14]", "result": "decreased"}, {"measurement": "number of IL-IP(+) cells", "setting": "[9]; [15]", "result": "significantly decreased"}, {"measurement": "number of INF-γ(+)/CD4(+) cells", "setting": "[9]; [15]", "result": "significantly decreased"}, {"measurement": "number of INF-γ(+)/CD4(+) cells", "setting": "[9]; retina tissues, i.p. administration group, 10 mg/kg", "result": "significantly decreased"}, {"measurement": "number of INF-γ(+)/CD4(+) cells", "setting": "[9]; retina tissues, i.p. administration group, 30 mg/kg", "result": "significantly decreased"}]}]}
